Laboratory results from US20050250801A1, “Method of treating cancer with azaspirane compositions” (priority 2003, published 2005).
Where two headings read alike, the source gives them in different places.

Tests used:
[1] = system: M14; test: NCI in vitro SRB assay, Melanoma; type: cell-based; conditions: for CC50 / GI50: Homo sapiens
Method: (§1) An in vitro assay which tested the ability of N,N,-diethyl-8,8-dipropyl-2-azaspiro[4,5]decane-2-propanamine dimaleate (Compound 1) to inhibit the growth of known cancer cell lines was performed by the National Cancer Institute in accordance with standard procedures. See: Lin, Z. X., Hoult, J. R., and Raman, A. Sulphorhodamine B assay for measuring proliferation of a pigmented melanocyte cell line and its application to the evaluation of crude drugs used in the treatment of vitiligo. J Ethnopharmacol. 66: 141-150, 1999. Briefly, selected tumor cell lines were cultured in media containing five different concentrations of Compound 1. After 48 hours of continuous exposure, a sulforhodamine B (SRB) assay was used to estimate cell viability or growth via optical measurements.
(§2) From the measurements, the following values were determined: 1) the concentration of Compound 1 at which a tumor cell growth inhibition of 50% (relative to control) occurs (GI50), 2) the concentration of Compound 1 at which no growth occurs (total growth inhibition, TGI), and 3) the concentration of Compound 1 at which the […] (LC 50). […] FIG. 6 illustrates, graphically, tumor cell growth as a function of Compound 1 concentration of the scanned tumor cell lines.

[2] = system: UACC-257; test: NCI in vitro SRB assay, Melanoma; type: cell-based; conditions: for CC50 / GI50: Homo sapiens
Method: as §1, §2

[3] = system: chorioallantoic membrane (CAM); test: Anti-angiogenesis CAM assay; type: in vivo, White Leghorn eggs; conditions: 48 hour exposure, ten eggs
Method: The dosing was effected by pipetting 40 μl of the indicated solution onto a 13 mm round Thermanox® coverslip and allowing it to air dry. After the material appeared dry, the coverslip was placed onto the chorioallantoic membrane (CAM) of each egg insuring contact of the dried test article with the CAM. After dosing, the eggs were returned to the incubator for approximately 48 hours. Following the 48 hour exposure period, the eggs were removed from the incubator, observed for viability, and the exposed area under the coverslip was examined for loss of vasculature.

[4] = system: HCC-2998; test: NCI in vitro SRB assay, Colon Cancer; type: cell-based; conditions: for CC50 / GI50: Homo sapiens
Method: as §1, §2

[5] = system: SW-620; test: NCI in vitro SRB assay, Colon Cancer; type: cell-based; conditions: for CC50 / GI50: Homo sapiens
Method: as §1, §2

[6] = system: KM12; test: NCI in vitro SRB assay, Colon Cancer; type: cell-based; conditions: for CC50 / GI50: Homo sapiens
Method: as §1, §2

[7] = system: HCT-15; test: NCI in vitro SRB assay, Colon Cancer; type: cell-based; conditions: for CC50 / GI50: Homo sapiens
Method: as §1, §2

[8] = system: HCT-116; test: NCI in vitro SRB assay, Colon Cancer; type: cell-based; conditions: for CC50 / GI50: Homo sapiens
Method: as §1, §2

[9] = UACC-257, Log10 conc -4.0 Moles/L
[10] = UACC-257, Log10 conc -5.0 Moles/L
[11] = UACC-257, Log10 conc -6.0 Moles/L
[12] = UACC-257, Log10 conc -7.0 Moles/L
[13] = UACC-257, Log10 conc -8.0 Moles/L
[14] = HCC-2998, Log10 conc -4.0 Moles/L
[15] = HCC-2998, Log10 conc -5.0 Moles/L
[16] = HCC-2998, Log10 conc -6.0 Moles/L
[17] = HCC-2998, Log10 conc -7.0 Moles/L
[18] = HCC-2998, Log10 conc -8.0 Moles/L
[19] = SW-620, Log10 conc -4.0 Moles/L
[20] = SW-620, Log10 conc -5.0 Moles/L
[21] = SW-620, Log10 conc -6.0 Moles/L
[22] = SW-620, Log10 conc -7.0 Moles/L
[23] = SW-620, Log10 conc -8.0 Moles/L
[24] = HCT-15, Log10 conc -4.0 Moles/L
[25] = HCT-15, Log10 conc -5.0 Moles/L
[26] = HCT-15, Log10 conc -6.0 Moles/L
[27] = HCT-15, Log10 conc -7.0 Moles/L
[28] = HCT-15, Log10 conc -8.0 Moles/L
[29] = HCT-116, Log10 conc -4.0 Moles/L
[30] = HCT-116, Log10 conc -5.0 Moles/L
[31] = HCT-116, Log10 conc -6.0 Moles/L
[32] = HCT-116, Log10 conc -7.0 Moles/L
[33] = HCT-116, Log10 conc -8.0 Moles/L

`CCCC1(CCC)CCC2(CCN(CCCN(CC)CC)C2)CC1.O=C(O)/C=C\C(=O)O.O=C(O)/C=C\C(=O)O` [Compound 1, N,N,-diethyl-8,8-dipropyl-2-azaspiro[4,5]decane-2-propanamine dimaleate] showed a CC50 ([1]; M14, read-out: LC50) of 1800 nM, a CC50 ([1]; M14, read-out: Log10 LC50 (converted)) of 1820 nM and a GI50 ([1]; M14, read-out: GI50) of 203 nM. For the same compound, the GI50 ([1]; M14, read-out: Log10 GI50 (converted)) was 204 nM, the “Log10 TGI” value ([1]; M14) was −6.32 and the TGI ([1]; M14) was 477 nM. For the same compound, the “Mean Optical Densities” value ([1]; M14, Log10 conc -4.0 Moles/L) was 0.109, the “Percent Growth” value ([1]; M14, Log10 conc -4.0 Moles/L) was −61% and the “Mean Optical Densities” value ([1]; M14, Log10 conc -5.0 Moles/L) was 0.086. The “Percent Growth” value ([1]; M14, Log10 conc -5.0 Moles/L) was −69%, the “Mean Optical Densities” value ([1]; M14, Log10 conc -6.0 Moles/L) was 0.158 and the “Percent Growth” value ([1]; M14, Log10 conc -6.0 Moles/L) was −43%. For the same compound, the “Mean Optical Densities” value ([1]; M14, Log10 conc -7.0 Moles/L) was 0.838, the “Percent Growth” value ([1]; M14, Log10 conc -7.0 Moles/L) was 92% and the “Mean Optical Densities” value ([1]; M14, Log10 conc -8.0 Moles/L) was 0.884. For the same compound, the “Percent Growth” value ([1]; M14, Log10 conc -8.0 Moles/L) was 99%, the CC50 ([2]; UACC-257, read-out: LC50) was 8740 nM and the CC50 ([2]; UACC-257, read-out: Log10 LC50 (converted)) was 8710 nM. For the same compound, the GI50 ([2]; UACC-257, read-out: GI50) was 1740 nM, the GI50 ([2]; UACC-257, read-out: Log10 GI50 (converted)) was 1740 nM and the “Log10 TGI” value ([2]; UACC-257) was −5.41. For the same compound, the TGI ([2]; UACC-257) was 3900 nM, the “Mean Optical Densities” value [2, 9] was 0.113 and the “Percent Growth” value [2, 9] was −75%. The “Mean Optical Densities” value [2, 10] was 0.190, the “Percent Growth” value [2, 10] was −58% and the “Mean Optical Densities” value [2, 11] was 1.302. The “Percent Growth” value [2, 11] was 84%, the “Mean Optical Densities” value [2, 12] was 1.427 and the “Percent Growth” value [2, 12] was 97%. The “Mean Optical Densities” value [2, 13] was 1.403, the “Percent Growth” value [2, 13] was 94% and the “Dead Eggs” value ([3]; Dose per egg 25 μg (0.625 mg/ml)) was 0. The “Dead Eggs” value ([3]; Dose per egg 50 μg (1.25 mg/ml)) was 0, the “Dead Eggs” value ([3]; Dose per egg 100 μg) was 4 and the “Dead Eggs” value ([3]; Dose per egg 200 μg (5 mg/ml)) was 3. For the same compound, the “Dead Eggs” value ([3]; Dose per egg 400 μg (10 mg/ml)) was 7, the “Log10 TGI” value ([4]; HCC-2998) was −6.62 and the TGI ([4]; HCC-2998) was 239 nM. For the same compound, the “Mean Optical Densities” value [4, 14] was 0.036, the “Percent Growth” value [4, 14] was −84% and the “Mean Optical Densities” value [4, 15] was 0.019. The “Percent Growth” value [4, 15] was −92%, the “Mean Optical Densities” value [4, 16] was 0.057 and the “Percent Growth” value [4, 16] was −74%. For the same compound, the “Mean Optical Densities” value [4, 17] was 0.303, the “Percent Growth” value [4, 17] was 45% and the “Mean Optical Densities” value [4, 18] was 0.338. For the same compound, the “Percent Growth” value [4, 18] was 64%, the CC50 ([4]; HCC 2998, read-out: LC50) was 628 nM and the CC50 ([4]; HCC 2998, read-out: Log10 LC50 (converted)) was 631 nM. The GI50 ([4]; HCC-2998, read-out: GI50) was 54.9 nM, the GI50 ([4]; HCC-2998, read-out: Log10 GI50 (converted)) was 55 nM and the CC50 ([5]; SW-620, read-out: LC50) was 5170 nM. It also gave a CC50 ([5]; SW-620, read-out: Log10 LC50 (converted)) of 5130 nM, a GI50 ([5]; SW-620, read-out: GI50) of 1380 nM and a GI50 ([5]; SW-620, read-out: Log10 GI50 (converted)) of 1380 nM. For the same compound, the “Log10 TGI” value ([5]; SW-620) was −5.57, the TGI ([5]; SW-620) was 2670 nM and the “Mean Optical Densities” value [5, 19] was −0.016. The “Percent Growth” value [5, 19] was −100%, the “Mean Optical Densities” value [5, 20] was −0.002 and the “Percent Growth” value [5, 20] was −100%. The “Mean Optical Densities” value [5, 21] was 0.789, the “Percent Growth” value [5, 21] was 75% and the “Mean Optical Densities” value [5, 22] was 0.948. For the same compound, the “Percent Growth” value [5, 22] was 95%, the “Mean Optical Densities” value [5, 23] was 0.948 and the “Percent Growth” value [5, 23] was 95%. The CC50 ([6]; KM12, read-out: LC50) was 7130 nM, the CC50 ([6]; KM12, read-out: Log10 LC50 (converted)) was 7080 nM and the GI50 ([6]; KM12, read-out: GI50) was 1510 nM. For the same compound, the GI50 ([6]; KM12, read-out: Log10 GI50 (converted)) was 1510 nM, the “Log10 TGI” value ([6]; KM12) was −5.48 and the TGI ([6]; KM12) was 3290 nM. For the same compound, the “Mean Optical Densities” value ([6]; KM12, Log10 conc -4.0 Moles/L) was 0.210, the “Percent Growth” value ([6]; KM12, Log10 conc -4.0 Moles/L) was −52% and the “Mean Optical Densities” value ([6]; KM12, Log10 conc -5.0 Moles/L) was 0.123. The “Percent Growth” value ([6]; KM12, Log10 conc -5.0 Moles/L) was −72%, the “Mean Optical Densities” value ([6]; KM12, Log10 conc -6.0 Moles/L) was 1.243 and the “Percent Growth” value ([6]; KM12, Log10 conc -6.0 Moles/L) was 77%. For the same compound, the “Mean Optical Densities” value ([6]; KM12, Log10 conc -7.0 Moles/L) was 1.402, the “Percent Growth” value ([6]; KM12, Log10 conc -7.0 Moles/L) was 92% and the “Mean Optical Densities” value ([6]; KM12, Log10 conc -8.0 Moles/L) was 1.429. The “Percent Growth” value ([6]; KM12, Log10 conc -8.0 Moles/L) was 94%, the “Log10 TGI” value ([7]; HCT-15) was −5.87 and the TGI ([7]; HCT-15) was 1340 nM. For the same compound, the “Mean Optical Densities” value [7, 24] was −0.026, the “Percent Growth” value [7, 24] was −100% and the “Mean Optical Densities” value [7, 25] was −0.027. The “Percent Growth” value [7, 25] was −100%, the “Mean Optical Densities” value [7, 26] was 0.371 and the “Percent Growth” value [7, 26] was 14%. The “Mean Optical Densities” value [7, 27] was 0.819, the “Percent Growth” value [7, 27] was 75% and the “Mean Optical Densities” value [7, 28] was 0.878. For the same compound, the “Percent Growth” value [7, 28] was 83%, the CC50 ([7]; HCT-15, read-out: LC50) was 3650 nM and the CC50 ([7]; HCT-15, read-out: Log10 LC50 (converted)) was 3630 nM. The GI50 ([7]; HCT-15, read-out: GI50) was 261 nM, the GI50 ([7]; HCT-15, read-out: Log10 GI50 (converted)) was 263 nM and the “Log10 TGI” value ([8]; HCT-116) was −5.63. The TGI ([8]; HCT-116) was 2370 nM, the “Mean Optical Densities” value [8, 29] was 0.061 and the “Percent Growth” value [8, 29] was −63%. For the same compound, the “Mean Optical Densities” value [8, 30] was 0.051, the “Percent Growth” value [8, 30] was −69% and the “Mean Optical Densities” value [8, 31] was 0.407. The “Percent Growth” value [8, 31] was 41%, the “Mean Optical Densities” value [8, 32] was 0.675 and the “Percent Growth” value [8, 32] was 87%. For the same compound, the “Mean Optical Densities” value [8, 33] was 0.744, the “Percent Growth” value [8, 33] was 99% and the CC50 ([8]; HCT-116, read-out: LC50) was 6730 nM. The CC50 ([8]; HCT-116, read-out: Log10 LC50 (converted)) was 6760 nM, the GI50 ([8]; HCT-116, read-out: GI50) was 646 nM and the GI50 ([8]; HCT-116, read-out: Log10 GI50 (converted)) was 646 nM.
